{"source": "patent US20150105252A1", "about": "“SUBSTITUTED PYRAZOLES AS HERBICIDES” (E I DU PONT DE NEMOURS AND COMPANY, priority 2013, published 2015)", "key": {"chickweed": {"tested_on": "chickweed", "experiment": "Test C postemergence", "type": "in vivo, Stellaria media", "procedure,_shortened": "(§1)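 In this greenhouse assay, seeded soil (loam plus sand) or emerged seedlings in peat-vermiculite medium were treated with formulated compound. Roughly two weeks later (13–15 days), each species was scored visually relative to controls, from 0 for no effect to 100 for complete control.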"}, "pigweed": {"tested_on": "pigweed", "experiment": "Test C postemergence", "type": "in vivo, Amaranthus retroflexus", "procedure,_shortened": "as §1"}, "galium": {"tested_on": "galium", "experiment": "Test C postemergence", "type": "in vivo, Galium aparine", "procedure,_shortened": "as §1"}, "waterhemp": {"tested_on": "waterhemp", "experiment": "Test C postemergence", "type": "in vivo, Amaranthus rudis", "procedure,_shortened": "as §1"}, "johnsongrass": {"tested_on": "johnsongrass", "experiment": "Test C postemergence", "type": "in vivo, Sorghum halepense", "procedure,_shortened": "as §1"}, "wheat": {"tested_on": "wheat", "experiment": "Test C postemergence", "type": "in vivo, Triticum aestivum", "procedure,_shortened": "as §1"}, "soybean": {"tested_on": "soybean", "experiment": "Test C postemergence", "type": "in vivo, Glycine max", "procedure,_shortened": "as §1"}, "oilseed rape": {"tested_on": "oilseed rape", "experiment": "Test C postemergence", "type": "in vivo, Brassica napus", "procedure,_shortened": "as §1"}, "ryegrass, Italian": {"tested_on": "ryegrass, Italian", "experiment": "Test C postemergence", "type": "in vivo, Lolium multiflorum", "procedure,_shortened": "as §1"}, "nutsedge, yellow": {"tested_on": "nutsedge, yellow", "experiment": "Test C postemergence", "type": "in vivo, Cyperus esculentus", "procedure,_shortened": "as §1"}, "blackgrass": {"tested_on": "blackgrass", "experiment": "Test C postemergence", "type": "in vivo, Alopecurus myosuroides", "procedure,_shortened": "as §1"}, "velvetleaf": {"tested_on": "velvetleaf", "experiment": "Test C postemergence", "type": "in vivo, Abutilon theophrasti", "procedure,_shortened": "as §1"}, "morningglory": {"tested_on": "morningglory", "experiment": "Test C postemergence", "type": "in vivo, Ipomoea coccinea", "procedure,_shortened": "as §1"}, "lambsquarters [1]": {"tested_on": "lambsquarters", "experiment": "Test C postemergence", "type": "in vivo, Chenopodium album", "procedure,_shortened": "as §1"}, "kochia": {"tested_on": "kochia", "experiment": "Test C postemergence", "type": "in vivo, Kochia scoparia", "procedure,_shortened": "as §1"}, "foxtail, giant": {"tested_on": "foxtail, giant", "experiment": "Test C postemergence", "type": "in vivo, Setaria faberii", "procedure,_shortened": "as §1"}, "lambsquarters [2]": {"tested_on": "lambsquarters", "experiment": "Test C preemergence", "type": "in vivo, Chenopodium album", "conditions": "for Lambsquarters plant response rating: scale 0 to 100 (0 no effect, 100 complete control)", "procedure,_shortened": "as §1"}, "corn": {"tested_on": "corn", "experiment": "Test C postemergence", "type": "in vivo, Zea mays", "procedure,_shortened": "as §1"}, "[3]": {"conditions": "Postemergence, 31 g ai/ha, visually evaluated after 13 to 15 days"}, "[4]": {"conditions": "postemergence, 62 g ai/ha, scale 0 to 100"}, "[5]": {"conditions": "postemergence, 250 g ai/ha, scale 0 to 100 (0 no effect, 100 complete control)"}, "[6]": {"conditions": "postemergence, 125 g ai/ha, scale 0 to 100, 0 no effect, 100 complete control"}}}
{"smiles": "CCCc1cc(C(=O)NCC)nn1Cc1cc(C(F)(F)F)nn1C", "note": "[Compound 129]", "values": [{"measurement": "Plant response rating (scale of 0 to 100 where 0 is no effect and 100 is complete control), Chickweed", "setting": "chickweed; [3]", "result": 50}, {"measurement": "Chickweed plant response rating", "setting": "chickweed; [4]", "result": 70}, {"measurement": "Plant response rating, Chickweed", "setting": "chickweed; [5]", "result": 100}, {"measurement": "Plant response rating, Chickweed", "setting": "chickweed; [6]", "result": 80}, {"measurement": "Plant response rating (scale of 0 to 100 where 0 is no effect and 100 is complete control), Pigweed", "setting": "pigweed; [3]", "result": 85}, {"measurement": "Pigweed plant response rating", "setting": "pigweed; [4]", "result": 95}, {"measurement": "Plant response rating, Pigweed", "setting": "pigweed; [5]", "result": 95}, {"measurement": "Plant response rating, Pigweed", "setting": "pigweed; [6]", "result": 100}, {"measurement": "Plant response rating (scale of 0 to 100 where 0 is no effect and 100 is complete control), Galium", "setting": "galium; [3]", "result": 60}, {"measurement": "Galium plant response rating", "setting": "galium; [4]", "result": 65}, {"measurement": "Plant response rating, Galium", "setting": "galium; [5]", "result": 80}, {"measurement": "Plant response rating, Galium", "setting": "galium; [6]", "result": 80}, {"measurement": "Plant response rating (scale of 0 to 100 where 0 is no effect and 100 is complete control), Waterhemp", "setting": "waterhemp; [3]", "result": 65}, {"measurement": "Waterhemp plant response rating", "setting": "waterhemp; [4]", "result": 90}, {"measurement": "Plant response rating, Waterhemp", "setting": "waterhemp; [5]", "result": 90}, {"measurement": "Plant response rating, Waterhemp", "setting": "waterhemp; [6]", "result": 80}, {"measurement": "Plant response rating (scale of 0 to 100 where 0 is no effect and 100 is complete control), Johnsongrass", "setting": "johnsongrass; [3]", "result": 5}, {"measurement": "Johnsongrass plant response rating", "setting": "johnsongrass; [4]", "result": 10}, {"measurement": "Plant response rating, Johnsongrass", "setting": "johnsongrass; [5]", "result": 10}, {"measurement": "Plant response rating, Johnsongrass", "setting": "johnsongrass; [6]", "result": 10}, {"measurement": "Plant response rating (scale of 0 to 100 where 0 is no effect and 100 is complete control), Wheat", "setting": "wheat; [3]", "result": 0}, {"measurement": "Wheat plant response rating", "setting": "wheat; [4]", "result": 5}, {"measurement": "Plant response rating, Wheat", "setting": "wheat; [5]", "result": 5}, {"measurement": "Plant response rating, Wheat", "setting": "wheat; [6]", "result": 5}, {"measurement": "Plant response rating (scale of 0 to 100 where 0 is no effect and 100 is complete control), Soybean", "setting": "soybean; [3]", "result": 85}, {"measurement": "Soybean plant response rating", "setting": "soybean; [4]", "result": 98}, {"measurement": "Plant response rating, Soybean", "setting": "soybean; [5]", "result": 98}, {"measurement": "Plant response rating, Soybean", "setting": "soybean; [6]", "result": 98}, {"measurement": "Plant response rating (scale of 0 to 100 where 0 is no effect and 100 is complete control), Oilseed Rape", "setting": "oilseed rape; [3]", "result": 60}, {"measurement": "Oilseed Rape plant response rating", "setting": "oilseed rape; [4]", "result": 60}, {"measurement": "Plant response rating, Oilseed Rape", "setting": "oilseed rape; [5]", "result": 70}, {"measurement": "Plant response rating, Oilseed Rape", "setting": "oilseed rape; [6]", "result": 65}, {"measurement": "Plant response rating (scale of 0 to 100 where 0 is no effect and 100 is complete control), Ryegrass, Italian", "setting": "ryegrass, Italian; [3]", "result": 0}, {"measurement": "Ryegrass, Italian plant response rating", "setting": "ryegrass, Italian; [4]", "result": 5}, {"measurement": "Plant response rating, Ryegrass, Italian", "setting": "ryegrass, Italian; [5]", "result": 5}, {"measurement": "Plant response rating, Ryegrass, Italian", "setting": "ryegrass, Italian; [6]", "result": 5}, {"measurement": "Plant response rating (scale of 0 to 100 where 0 is no effect and 100 is complete control), Nutsedge, Yellow", "setting": "nutsedge, yellow; [3]", "result": 0}, {"measurement": "Nutsedge, Yellow plant response rating", "setting": "nutsedge, yellow; [4]", "result": 0}, {"measurement": "Plant response rating, Nutsedge, Yellow", "setting": "nutsedge, yellow; [5]", "result": 5}, {"measurement": "Plant response rating, Nutsedge, Yellow", "setting": "nutsedge, yellow; [6]", "result": 5}, {"measurement": "Plant response rating (scale of 0 to 100 where 0 is no effect and 100 is complete control), Blackgrass", "setting": "blackgrass; [3]", "result": 10}, {"measurement": "Blackgrass plant response rating", "setting": "blackgrass; [4]", "result": 5}, {"measurement": "Plant response rating, Blackgrass", "setting": "blackgrass; [5]", "result": 20}, {"measurement": "Plant response rating, Blackgrass", "setting": "blackgrass; [6]", "result": 35}, {"measurement": "Plant response rating (scale of 0 to 100 where 0 is no effect and 100 is complete control), Velvetleaf", "setting": "velvetleaf; [3]", "result": 25}, {"measurement": "Velvetleaf plant response rating", "setting": "velvetleaf; [4]", "result": 65}, {"measurement": "Plant response rating (scale of 0 to 100 where 0 is no effect and 100 is complete control), Morningglory", "setting": "morningglory; [3]", "result": 80}, {"measurement": "Morningglory plant response rating", "setting": "morningglory; [4]", "result": 100}, {"measurement": "Plant response rating, Morningglory", "setting": "morningglory; [5]", "result": 100}, {"measurement": "Plant response rating, Morningglory", "setting": "morningglory; [6]", "result": 100}, {"measurement": "Plant response rating (scale of 0 to 100 where 0 is no effect and 100 is complete control), Lambsquarters", "setting": "lambsquarters [1]; [3]", "result": 55}, {"measurement": "Lambsquarters plant response rating", "setting": "lambsquarters [1]; [4]", "result": 100}, {"measurement": "Plant response rating, Lambsquarters", "setting": "lambsquarters [1]; [5]", "result": 98}, {"measurement": "Plant response rating, Lambsquarters", "setting": "lambsquarters [1]; [6]", "result": 98}, {"measurement": "Plant response rating (scale of 0 to 100 where 0 is no effect and 100 is complete control), Kochia", "setting": "kochia; [3]", "result": 90}, {"measurement": "Kochia plant response rating", "setting": "kochia; [4]", "result": 90}, {"measurement": "Plant response rating, Kochia", "setting": "kochia; [5]", "result": 90}, {"measurement": "Plant response rating, Kochia", "setting": "kochia; [6]", "result": 90}, {"measurement": "Plant response rating (scale of 0 to 100 where 0 is no effect and 100 is complete control), Foxtail, Giant", "setting": "foxtail, giant; [3]", "result": 15}, {"measurement": "Foxtail, Giant plant response rating", "setting": "foxtail, giant; [4]", "result": 20}, {"measurement": "Plant response rating, Foxtail, Giant", "setting": "foxtail, giant; [5]", "result": 45}, {"measurement": "Plant response rating, Foxtail, Giant", "setting": "foxtail, giant; [6]", "result": 35}, {"measurement": "Plant response rating (scale of 0 to 100), Lambsquarters", "setting": "lambsquarters [2]; Preemergence, 250 g ai/ha", "result": 100}, {"measurement": "Lambsquarters plant response rating", "setting": "lambsquarters [2]; preemergence, 31 g ai/ha, visual rating, 13 to 15 days", "result": 98}, {"measurement": "Lambsquarters plant response rating", "setting": "lambsquarters [2]; preemergence, 62 g ai/ha, 13 to 15 days", "result": 100}, {"measurement": "Plant response rating, Lambsquarters", "setting": "lambsquarters [2]; preemergence, 125 g ai/ha, 13 to 15 days, scale 0 to 100, 0 = no effect, 100 = complete control", "result": 100}, {"measurement": "Plant response rating (scale of 0 to 100 where 0 is no effect and 100 is complete control), Corn", "setting": "corn; [3]", "result": 10}, {"measurement": "Corn plant response rating", "setting": "corn; [4]", "result": 10}, {"measurement": "Plant response rating, Corn", "setting": "corn; [5]", "result": 15}, {"measurement": "Plant response rating, Corn", "setting": "corn; [6]", "result": 15}]}
